Results taken from PMC10945555, “Improving Activity of New Arylurea Agents against Multidrug-Resistant and Biofilm-Producing Staphylococcus epidermidis” (ACS Medicinal Chemistry Letters, 2024).
≈ marks a conversion by molar mass, not a printed value. Read-outs that look alike come from different tables or passages of the source.

Tests used:
[1] = system: clinical MDR Staphylococcus epidermidis isolates; assay: MIC, broth microdilution, 81 clinical MDR strains; type: cell-based; conditions: Staphylococcus epidermidis
Procedure, shortened: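 MICs were determined by twofold broth microdilution in cation-adjusted Mueller-Hinton II broth per EUCAST, over 50–0.1 µg/mL, in duplicate. Compounds were tested as free bases dissolved in DMSO; MIC50 and MIC90 were derived across the 81 clinical MDR S. epidermidis strains.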

horse red blood cells = assay: Hemolytic activity assay
Procedure: 2.3.3 Hemolytic activity assay
The hemolytic properties of tested compound were evaluated according to previously reported procedure.6 Defibrinated horse red blood cells purchased from Thermo Fisher Scientific (Germany) were washed with PBS (3000 rpm, 10 min at 4 °C) for three times followed by PBS dilution to obtain a 8% suspension. Then, 100 μL of the resulting suspensions […]
were treated with 100 μL of tested compound at the final concentration of 200 μM, and incubated at 37 °C for 1 h. Triton X-100 (2%) and PBS were used as positive and negative controls, respectively. After centrifugation at 3000 rpm for 3 min, 100 μL of the supernatants were transferred to a 96 well microtiter plate and the hemoglobin release was determined in a SpectraMax iD3 reader (Molecular Devices) by absorption at 540 nm. […]

[2] = system: Staphylococcus aureus ATCC BAA-976; assay: MIC, broth microdilution, MDR/BPSA reference strain; type: cell-based; conditions: ATCCBAA976; Staphylococcus aureus ATCC BAA-976; read-out: MIC MDR/BPSA
Procedure, shortened: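 Compounds tested as free bases dissolved in DMSO (1 mg/mL stock); determinations done twice; linezolid as positive control.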

O=S(=O)(NC1CCN(CCC(Oc2ccc(C(F)(F)F)cc2)c2ccccc2)CC1)c1cccc(Cl)c1 (stereo not drawn) [Compound 12]
MIC ([1]; clinical strain 1 (Table S2), read-out: MIC): 0.2 µg/mL (≈ 0.362 µM)
MIC ([1]; clinical strain 2 (Table S2), read-out: MIC): 1.6 µg/mL (≈ 2.89 µM)
MIC ([1]; clinical strain 3 (Table S2), read-out: MIC): 0.8 µg/mL (≈ 1.45 µM)
MIC ([1]; clinical strain 4 (Table S2), read-out: MIC): 0.8 µg/mL (≈ 1.45 µM)
MIC ([1]; clinical strain 5 (Table S2), read-out: MIC): 1.6 µg/mL (≈ 2.89 µM)
MIC ([1]; clinical strain 6 (Table S2), read-out: MIC): 3.12 µg/mL (≈ 5.65 µM)
MIC ([1]; clinical strain 7 (Table S2), read-out: MIC): 6.25 µg/mL (≈ 11.3 µM)
MIC ([1]; clinical strain 8 (Table S2), read-out: MIC): 1.6 µg/mL (≈ 2.89 µM)
MIC ([1]; clinical strain 9 (Table S2), read-out: MIC): 3.12 µg/mL (≈ 5.65 µM)
MIC ([1]; clinical strain 10 (Table S2), read-out: MIC): 6.25 µg/mL (≈ 11.3 µM)
MIC ([1]; clinical strain 11 (Table S2), read-out: MIC): 6.25 µg/mL (≈ 11.3 µM)
MIC ([1]; clinical strain 12 (Table S2), read-out: MIC): 6.25 µg/mL (≈ 11.3 µM)
MIC ([1]; clinical strain 13 (Table S2), read-out: MIC): 6.25 µg/mL (≈ 11.3 µM)
MIC ([1]; clinical strain 14 (Table S2), read-out: MIC): 50 µg/mL (≈ 90.4 µM)
MIC ([1]; clinical strain 15 (Table S2), read-out: MIC): 3.12 µg/mL (≈ 5.65 µM)
MIC ([1]; clinical strain 16 (Table S2), read-out: MIC): 3.12 µg/mL (≈ 5.65 µM)
MIC ([1]; clinical strain 17 (Table S2), read-out: MIC): 3.12 µg/mL (≈ 5.65 µM)
MIC ([1]; clinical strain 18 (Table S2), read-out: MIC): 3.12 µg/mL (≈ 5.65 µM)
MIC ([1]; clinical strain 19 (Table S2), read-out: MIC): 3.12 µg/mL (≈ 5.65 µM)
MIC ([1]; clinical strain 20 (Table S2), read-out: MIC): 6.25 µg/mL (≈ 11.3 µM)
MIC ([1]; clinical strain 21 (Table S2), read-out: MIC): 6.25 µg/mL (≈ 11.3 µM)
MIC ([1]; clinical strain 22 (Table S2), read-out: MIC): 12.5 µg/mL (≈ 22.6 µM)
MIC ([1]; clinical strain 23 (Table S2), read-out: MIC): 12.5 µg/mL (≈ 22.6 µM)
MIC ([1]; clinical strain 24 (Table S2), read-out: MIC): 12.5 µg/mL (≈ 22.6 µM)
MIC ([1]; clinical strain 25 (Table S2), read-out: MIC): 12.5 µg/mL (≈ 22.6 µM)
MIC ([1]; clinical strain 26 (Table S2), read-out: MIC): 12.5 µg/mL (≈ 22.6 µM)
MIC ([1]; clinical strain 27 (Table S2), read-out: MIC): 25 µg/mL (≈ 45.2 µM)
MIC ([1]; clinical strain 28 (Table S2), read-out: MIC): 12.5 µg/mL (≈ 22.6 µM)
MIC ([1]; clinical strain 29 (Table S2), read-out: MIC): 12.5 µg/mL (≈ 22.6 µM)
MIC ([1]; clinical strain 30 (Table S2), read-out: MIC): 25 µg/mL (≈ 45.2 µM)
MIC ([1]; clinical strain 31 (Table S2), read-out: MIC): 50 µg/mL (≈ 90.4 µM)
MIC ([1]; clinical strain 32 (Table S2), read-out: MIC): 50 µg/mL (≈ 90.4 µM)
MIC ([1]; clinical strain 33 (Table S2), read-out: MIC): 25 µg/mL (≈ 45.2 µM)
MIC ([1]; clinical strain 34 (Table S2), read-out: MIC): 50 µg/mL (≈ 90.4 µM)
MIC ([1]; clinical strain 35 (Table S2), read-out: MIC): 50 µg/mL (≈ 90.4 µM)
MIC ([1]; clinical strain 36 (Table S2), read-out: MIC): 50 µg/mL (≈ 90.4 µM)
MIC ([1]; clinical strain 37 (Table S2), read-out: MIC): 50 µg/mL (≈ 90.4 µM)
MIC ([1]; clinical strain 38 (Table S2), read-out: MIC): 50 µg/mL (≈ 90.4 µM)
MIC ([1]; clinical strain 39 (Table S2), read-out: MIC): 50 µg/mL (≈ 90.4 µM)
MIC ([1]; clinical strain 40 (Table S2), read-out: MIC): 50 µg/mL (≈ 90.4 µM)
MIC ([1]; clinical strain 41 (Table S2), read-out: MIC): 12.5 µg/mL (≈ 22.6 µM)
MIC ([1]; clinical strain 42 (Table S2), read-out: MIC): 50 µg/mL (≈ 90.4 µM)
MIC ([1]; clinical strain 43 (Table S2), read-out: MIC): 25 µg/mL (≈ 45.2 µM)
MIC ([1]; clinical strain 44 (Table S2), read-out: MIC): 50 µg/mL (≈ 90.4 µM)
MIC ([1]; clinical strain 45 (Table S2), read-out: MIC): 50 µg/mL (≈ 90.4 µM)
MIC ([1]; clinical strain 46 (Table S2), read-out: MIC): 50 µg/mL (≈ 90.4 µM)
MIC ([1]; clinical strain 47 (Table S2), read-out: MIC): 50 µg/mL (≈ 90.4 µM)
MIC ([1]; clinical strain 48 (Table S2), read-out: MIC): 3.12 µg/mL (≈ 5.65 µM)
MIC ([1]; clinical strain 49 (Table S2), read-out: MIC): 0.1 µg/mL (≈ 0.181 µM)
MIC ([1]; clinical strain 50 (Table S2), read-out: MIC): 50 µg/mL (≈ 90.4 µM)
MIC ([1]; clinical strain 51 (Table S2), read-out: MIC): 50 µg/mL (≈ 90.4 µM)
MIC ([1]; clinical strain 52 (Table S2), read-out: MIC): 3.12 µg/mL (≈ 5.65 µM)
MIC ([1]; clinical strain 53 (Table S2), read-out: MIC): 6.25 µg/mL (≈ 11.3 µM)
MIC ([1]; clinical strain 54 (Table S2), read-out: MIC): 50 µg/mL (≈ 90.4 µM)
MIC ([1]; clinical strain 55 (Table S2), read-out: MIC): 6.25 µg/mL (≈ 11.3 µM)
MIC ([1]; clinical strain 56 (Table S2), read-out: MIC): 3.12 µg/mL (≈ 5.65 µM)
MIC ([1]; clinical strain 57 (Table S2), read-out: MIC): 50 µg/mL (≈ 90.4 µM)
MIC ([1]; clinical strain 58 (Table S2), read-out: MIC): 3.12 µg/mL (≈ 5.65 µM)
MIC ([1]; clinical strain 59 (Table S2), read-out: MIC): 50 µg/mL (≈ 90.4 µM)
MIC ([1]; clinical strain 60 (Table S2), read-out: MIC): 3.12 µg/mL (≈ 5.65 µM)
MIC ([1]; clinical strain 61 (Table S2), read-out: MIC): 50 µg/mL (≈ 90.4 µM)
MIC ([1]; clinical strain 62 (Table S2), read-out: MIC): 6.25 µg/mL (≈ 11.3 µM)
MIC ([1]; clinical strain 63 (Table S2), read-out: MIC): 1.6 µg/mL (≈ 2.89 µM)
MIC ([1]; clinical strain 64 (Table S2), read-out: MIC): 3.12 µg/mL (≈ 5.65 µM)
MIC ([1]; clinical strain 65 (Table S2), read-out: MIC): 3.12 µg/mL (≈ 5.65 µM)
MIC ([1]; clinical strain 66 (Table S2), read-out: MIC): 50 µg/mL (≈ 90.4 µM)
MIC ([1]; clinical strain 67 (Table S2), read-out: MIC): 50 µg/mL (≈ 90.4 µM)
MIC ([1]; clinical strain 68 (Table S2), read-out: MIC): 50 µg/mL (≈ 90.4 µM)
MIC ([1]; clinical strain 69 (Table S2), read-out: MIC): 1.6 µg/mL (≈ 2.89 µM)
MIC ([1]; clinical strain 70 (Table S2), read-out: MIC): 50 µg/mL (≈ 90.4 µM)
MIC ([1]; clinical strain 71 (Table S2), read-out: MIC): 50 µg/mL (≈ 90.4 µM)
MIC ([1]; clinical strain 72 (Table S2), read-out: MIC): 3.12 µg/mL (≈ 5.65 µM)
MIC ([1]; clinical strain 73 (Table S2), read-out: MIC): 0.8 µg/mL (≈ 1.45 µM)
MIC ([1]; clinical strain 74 (Table S2), read-out: MIC): 50 µg/mL (≈ 90.4 µM)
MIC ([1]; clinical strain 75 (Table S2), read-out: MIC): 6.25 µg/mL (≈ 11.3 µM)
MIC ([1]; clinical strain 76 (Table S2), read-out: MIC): 0.8 µg/mL (≈ 1.45 µM)
MIC ([1]; clinical strain 77 (Table S2), read-out: MIC): 3.12 µg/mL (≈ 5.65 µM)
MIC ([1]; clinical strain 78 (Table S2), read-out: MIC): 6.25 µg/mL (≈ 11.3 µM)
MIC ([1]; clinical strain 79 (Table S2), read-out: MIC): 3.12 µg/mL (≈ 5.65 µM)
MIC ([1]; clinical strain 80 (Table S2), read-out: MIC): 12.5 µg/mL (≈ 22.6 µM)
MIC ([1]; clinical strain 81 (Table S2), read-out: MIC): 6.25 µg/mL (≈ 11.3 µM)
MIC ([1]; mean of MIC values against clinical MDR-SE isolates, read-out: mean MIC): 20.4 µg/mL (≈ 36.9 µM)
MIC50 ([1]; 81 clinical strains, concentration inhibiting growth of 50% clinical isolates): 6.25 µg/mL (≈ 11.3 µM)
MIC90 ([1]; 81 clinical strains, concentration inhibiting growth of 90% of clinical isolates): 50 µg/mL (≈ 90.4 µM)
%hem (hemolytic activity) (horse red blood cells; 200 μM, 1 h, n = 3): 0.48%
lysis of erythrocytes (horse red blood cells; concentrations up to 200 μM): None of them caused lysis of erythrocytes
MIC [2]: 50 µg/mL (≈ 90.4 µM)
